According to patent publication US9663473B2 (Actelion Pharmaceuticals Ltd, priority 2013, dated 2017):

Test system: models of Alzheimer's Disease
Assay: not given
Settings: cited from earlier work

For “humanin: high-affinity ligand for FPR2, neuroprotective in models of Alzheimer's Disease (MAPRGFSCLLLLTSEIDLPVKRRA; Humanin; UniProt Q8IVG9 1-24, looked up)”, the neuroprotection is given as “neuroprotective”.

Test system: dry corneal surface
Assay: not given
Settings: topical treatment; cited from earlier work

For `CCCCC[C@H](O)/C=C/C=C\C=C\C=C\[C@@H](O)[C@@H](O)CCCC(=O)O` [Lipoxin A4, lipoxin A4], the “re-epithelization and inflammation of the dry corneal surface” value is listed as “increases re-epithelization and decreases inflammation of the dry corneal surface”.

Test system: human fibroblast-like synoviocytes
Assay: not given
Settings: cited from earlier work

For `CCCCC[C@H](O)/C=C/C=C\C=C\C=C\[C@@H](O)[C@@H](O)CCCC(=O)O` [Lipoxin A4, lipoxin A4], the IL-6 expression is listed as “inhibited IL-6 expression”.

Target: T1, ALXR (Homo sapiens, UniProt P25090)
T1 sequence (P25090 1-351): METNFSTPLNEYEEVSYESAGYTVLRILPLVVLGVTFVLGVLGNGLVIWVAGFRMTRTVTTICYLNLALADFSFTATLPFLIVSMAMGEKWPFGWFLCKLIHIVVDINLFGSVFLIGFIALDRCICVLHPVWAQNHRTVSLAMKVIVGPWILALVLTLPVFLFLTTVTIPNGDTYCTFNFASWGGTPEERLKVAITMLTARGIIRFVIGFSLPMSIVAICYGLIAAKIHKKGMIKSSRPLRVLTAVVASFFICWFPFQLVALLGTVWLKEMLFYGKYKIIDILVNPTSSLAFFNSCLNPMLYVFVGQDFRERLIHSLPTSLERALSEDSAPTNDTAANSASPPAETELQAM
Assay: not given
Settings: cited from earlier work

In the case of `CCCCC[C@H](O)/C=C/C=C\C=C\C=C\[C@@H](O)[C@@H](O)CCCC(=O)O` [Lipoxin A4, lipoxin A4], the “binding to ALXR” value is given as “high affinity”.

Target: T2, recombinant human ALX receptor (Homo sapiens, UniProt P25090)
T2 construct: expressed in transfected cells; host or cells: HEK293 (HEK293-hALXR-Gα16)
T2 sequence (P25090 1-351): T1 sequence (P25090 1-351)
Assay: Intracellular calcium measurements (FLIPR), ALX receptor agonistic activity
Format: cell-based
Settings: HEK293-hALXR-Gα16 cells, Fluo-4 calcium signal, normalized to WKYMVm 10 nM
Summary of the method: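 Agonist-induced calcium flux was read by FLIPR (488/540 nm) as baseline-subtracted peak emission, expressed relative to WKYMVm at 10 nM final. Cells used: HEK293-hALXR-Gα16, dye-loaded 60 min at 37° C. with 1 μM Fluo-4 AM before compound dose-response addition.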

In order of rising EC50:
1. COc1ccc(CC(NC(=O)Nc2cc(C)nn2-c2ccccc2)c2nc3ccccc3[nH]2)cc1 (stereo not shown) [Example 408, 1-(1-(1H-benzo[d]imidazol-2-yl)-2-(4-methoxyphenyl)ethyl)-3-(3-methyl-1-phenyl-1H-pyrazol-5-yl)urea]  20 nM
2. COc1ccc(CC(NC(=O)Nc2ccnn2C(C)(C)C)c2nc3ccccc3[nH]2)cc1 (stereo not shown) [Example 414, 1-(1-(1H-benzo[d]imidazol-2-yl)-2-(4-methoxyphenyl)ethyl)-3-(1-(tert-butyl)-1H-pyrazol-5-yl)urea]  30 nM
3. COc1ccc(CC(NC(=O)Nc2cc(C3CC3)nn2-c2ccccc2)c2nc3ccccc3[nH]2)cc1 (stereo not shown) [Example 405, 1-(1-(1H-benzo[d]imidazol-2-yl)-2-(4-methoxyphenyl)ethyl)-3-(3-cyclopropyl-1-phenyl-1H-pyrazol-5-yl)urea]  32 nM
4. COc1ccc(CC(NC(=O)Nc2ccnn2-c2ccc(F)cc2)c2nc3ccccc3[nH]2)cc1 (stereo not shown) [Example 410, 1-(1-(1H-benzo[d]imidazol-2-yl)-2-(4-methoxyphenyl)ethyl)-3-(1-(4-fluorophenyl)-1H-pyrazol-5-yl)urea]  45 nM
5. COc1ccc(CC(NC(=O)Nc2ccnn2-c2ccccc2OC)c2nc3ccccc3[nH]2)cc1 (stereo not shown) [Example 421, 1-(1-(1H-benzo[d]imidazol-2-yl)-2-(4-methoxyphenyl)ethyl)-3-(1-(2-methoxyphenyl)-1H-pyrazol-5-yl)urea]  46 nM
6. COc1ccc(CC(NC(=O)Nc2ccnn2-c2ccccn2)c2nc3ccccc3[nH]2)cc1 (stereo not shown) [Example 411, 1-(1-(1H-benzo[d]imidazol-2-yl)-2-(4-methoxyphenyl)ethyl)-3-(1-(pyridin-2-yl)-1H-pyrazol-5-yl)urea]  56 nM
7. COc1ccc(CC(NC(=O)Nc2ccnn2-c2cccc(OC)c2)c2nc3ccccc3[nH]2)cc1 (stereo not shown) [Example 419, 1-(1-(1H-benzo[d]imidazol-2-yl)-2-(4-methoxyphenyl)ethyl)-3-(1-(3-methoxyphenyl)-1H-pyrazol-5-yl)urea]  56 nM
8. CCn1nccc1NC(=O)NC(Cc1ccc(OC)cc1)c1nc2ccccc2[nH]1 (stereo not shown) [Example 417, 1-(1-(1H-benzo[d]imidazol-2-yl)-2-(4-methoxyphenyl)ethyl)-3-(1-ethyl-1H-pyrazol-5-yl)urea]  61 nM
9. COc1ccc(CC(NC(=O)Nc2cc(C)nn2C)c2nc3ccccc3[nH]2)cc1 (stereo not shown) [Example 416, 1-(1-(1H-benzo[d]imidazol-2-yl)-2-(4-methoxyphenyl)ethyl)-3-(1,3-dimethyl-1H-pyrazol-5-yl)urea]  89 nM
10. COc1ccc(CC(NC(=O)Nc2ccnn2Cc2ccccc2)c2nc3ccccc3[nH]2)cc1 (stereo not shown) [Example 415, 1-(1-(1H-benzo[d]imidazol-2-yl)-2-(4-methoxyphenyl)ethyl)-3-(1-benzyl-1H-pyrazol-5-yl)urea]  101 nM
11. COc1ccc(CC(NC(=O)Nc2cc(-c3ccc(Cl)cc3)nn2C)c2nc3ccccc3[nH]2)cc1 (stereo not shown) [Example 403, 1-(1-(1H-Benzo[d]imidazol-2-yl)-2-(4-methoxyphenyl)ethyl)-3-(3-(4-chlorophenyl)-1-methyl-1H-pyrazol-5-yl)urea]  118 nM
12. COc1ccc(CC(NC(=O)Nc2ccnn2-c2ccc(OC(F)(F)F)cc2)c2nc3ccccc3[nH]2)cc1 (stereo not shown) [Example 413, 1-(1-(1H-benzo[d]imidazol-2-yl)-2-(4-methoxyphenyl)ethyl)-3-(1-(4-(trifluoromethoxy)phenyl)-1H-pyrazol-5-yl)urea]  153 nM
13. COc1ccc(CC(NC(=O)Nc2ccnn2-c2ccc(C(C)C)cc2)c2nc3ccccc3[nH]2)cc1 (stereo not shown) [Example 407, 1-(1-(1H-benzo[d]imidazol-2-yl)-2-(4-methoxyphenyl)ethyl)-3-(1-(4-isopropylphenyl)-1H-pyrazol-5-yl)urea]  156 nM
14. COc1ccc(CC(NC(=O)Nc2ccnn2-c2ccccc2)c2nc3ccccc3[nH]2)cc1 (stereo not shown) [Example 412, 1-(1-(1H-benzo[d]imidazol-2-yl)-2-(4-methoxyphenyl)ethyl)-3-(1-phenyl-1H-pyrazol-5-yl)urea]  157 nM
15. COc1ccc(CC(NC(=O)Nc2cc(-c3ccc(OC)cc3)n[nH]2)c2nc3ccccc3[nH]2)cc1 (stereo not shown) [Example 404, 1-(1-(1H-benzo[d]imidazol-2-yl)-2-(4-methoxyphenyl)ethyl)-3-(3-(4-methoxyphenyl)-1H-pyrazol-5-yl)urea]  158 nM
16. COc1ccc(CC(NC(=O)Nc2ccnn2-c2ccc(OC)cc2)c2nc3ccccc3[nH]2)cc1 (stereo not shown) [Example 406, 1-(1-(1H-benzo[d]imidazol-2-yl)-2-(4-methoxyphenyl)ethyl)-3-(1-(4-methoxyphenyl)-1H-pyrazol-5-yl)urea]  182 nM
17. COc1ccc(CC(NC(=O)Nc2ccnn2-c2ccc(C)cc2)c2nc3ccccc3[nH]2)cc1 (stereo not shown) [Example 420, 1-(1-(1H-benzo[d]imidazol-2-yl)-2-(4-methoxyphenyl)ethyl)-3-(1-(p-tolyl)-1H-pyrazol-5-yl)urea]  207 nM
18. COc1ccc(CC(NC(=O)Nc2ccnn2C)c2nc3ccccc3[nH]2)cc1 (stereo not shown) [Example 418, 1-(1-(1H-benzo[d]imidazol-2-yl)-2-(4-methoxyphenyl)ethyl)-3-(1-methyl-1H-pyrazol-5-yl)urea]  210 nM
19. (R)—N-(1-(1H-Benzo[d]imidazol-2-yl)-2-(4-methoxyphenyl)ethyl)-4-acetylpiperazine-1-carboxamide [Example 135]  333 nM
20. COc1ccc(CC(NC(=O)Nc2ccnn2-c2ccncc2)c2nc3ccccc3[nH]2)cc1 (stereo not shown) [Example 409, 1-(1-(1H-benzo[d]imidazol-2-yl)-2-(4-methoxyphenyl)ethyl)-3-(1-(pyridin-4-yl)-1H-pyrazol-5-yl)urea]  362 nM
21. (R)-tert-Butyl 4-((3-(1-(1H-benzo[d]imidazol-2-yl)-2-(4-methoxyphenyl)ethyl)ureido)methyl)piperidine-1-carboxylate [Example 106]  538 nM
22. COc1ccc(C[C@@H](NC(=O)NCc2nc(C(C)(F)F)co2)c2nc3ccccc3[nH]2)cc1 [Example 423, (R)-1-(1-(1H-benzo[d]imidazol-2-yl)-2-(4-methoxyphenyl)ethyl)-3-((4-(1,1-difluoroethyl)oxazol-2-yl)methyl)urea]  565 nM
23. COc1ccc(CC(C)(NC(=O)Nc2cc(C3CC3)nn2C)c2nc3ccccc3[nH]2)cc1 (stereo not shown) [Example 422, 1-(2-(1H-benzo[d]imidazol-2-yl)-1-(4-methoxyphenyl)propan-2-yl)-3-(3-cyclopropyl-1-methyl-1H-pyrazol-5-yl)urea]  720 nM

Test system: collagen-induced arthritis
Assay: not given
Settings: in vivo; cited from earlier work

In the case of `COC(=O)CCC[C@H](O)[C@H](O)CO` [BML-111], the “severity of collagen-induced arthritis” value is given as “reduced the severity of collagen-induced arthritis”.
